Measurements from publication PMC5267425, “Identification of small molecule modulators of HIV-1 Tat and Rev protein accumulation” (Retrovirology, 2017).

Assays:
[1] = XTT assay, SupT1 24STNLESG cells; format: cell-based; conditions: human
Procedure: Additional file 1: Figure S1. 791 and 833 Suppress HIV-1 Gene Expression in SupT1 24NESLG Cell Line. a Schematic of HIV-1 provirus used to generated the stably transduced SupT1 cell line. b Effect of 791 and 833 on Gag expression in SupT1 NLESG cells. Cells were treated with indicated concentrations of 791/833 then HIV-1 expression induced by PMA addition. Media harvested after 24 h was subsequently assayed using Gag (p24) ELISA. Cell viability was measured by an XTT assay. 892 was not active in this cell line at the concentrations tested Additional file 2: Figure S7. Effect of compounds on CEM-GXR cell viability. Evaluation of 791, 833, and 892 on CEM-GXR cell viability in the Guava ViaCount assay. Cells were analyzed after 24 h incubation with the compounds at the indicated concentrations ranging between 0–47 μM (791), 0–5 μM (833), or 0–62.5 μM (892). Results are expressed as the percentage (%) of viable cells relative to DMSO treatment ±SEM of two independent experiments performed in triplicate. […] Images are cropped to show a representative field of view. b The dose range of the compounds which inhibit HIV-1 GagGFP expression in HeLa rtTA HIVGagGFP C7 cells was measured by mean fluorescence intensity and expressed relative to fluorescence intensity in DMSO-treated samples (N ≥ 3, *p ≤ 0.05, **p ≤ 0.01, and ***p ≤ 0.001). […]

[2] = test system: PBMCs; assay: Trypan blue exclusion, PBMCs; format: cell-based, human; conditions: PBMCs
Procedure: To examine the effect of compounds on viral replication, studies were carried out in peripheral blood mononuclear cells (PBMCs). PBMCs were isolated from healthy (HIV-uninfected) volunteer blood donors as described by Dobson-Belaire et al.. Informed consent was obtained from participants in accordance with the guidelines for conduct of clinical research at the University of Toronto and St. Michael’s Hospital, Toronto, Ontario, Canada. Stored PBMCs were thawed, washed with RPMI 1640 complete medium and cultured in RPMI 1640 complete medium containing 2 μg/mL of PHA-L (Sigma-Aldrich) and 20 U/mL of IL-2 (BD Pharmingen) for 72 h. Subsequently, cells were counted and a portion of the cells was separated to another tube for uninfected control treatments. The remaining PBMCs were resuspended in media containing HIV-1 BaL at a multiplicity of infection (MOI) of approximately 0.01 and infected by spinoculation, following which cells were washed twice with room temperature RPMI 1640 complete medium and resuspended to a concentration of 5 × 10^5 cells/mL in complete RPMI 1640 containing 20 U/mL of IL-2. Compounds were added to infected PBMCs or uninfected control PBMCs. Azidothymidine (AZT, Sigma-Aldrich) was used as control treatment at a final concentration of 3.74 μM. On day 4 post infection, culture medium was replenished with the compounds and IL-2 in fresh complete RPMI 1640. On days 2, 4, 6 and 8 post infection, culture supernatant was harvested, virus lysed by adjusting to 1% TritonX-100 and stored at −20 °C for p24 antigen ELISA. A fraction of the culture was harvested to assess percent cell viability by trypan blue exclusion using Glasstic slides (Kova). Relative percent cell viability in compound treated samples versus DMSO-control treated samples was calculated as follows: (total viable cells/total cells)compound/(total viable cells/total cells)DMSO.

| Compound | CC50 at 24 h [1] | toxicity at concentrations required to block HIV-1 replication [2] |
| --- | --- | --- |
| Cc1cc(NCc2cccnc2)n2ncc(-c3ccc(Cl)cc3)c2n1 [Compound 791, 3-(4-chlorophenyl)-5-methyl-N-(3-pyridinylmethyl)pyrazolo[1,5-a]pyrimidin-7-amine] | > 60 µM | – |
| O=C(NC(=S)NNC(=O)c1ccccc1O)c1ccc(-c2ccccc2)cc1 [Compound 833, N-([2-(2-hydroxybenzoyl)hydrazino]carbonothioyl}-4-biphenylcarboxamide] | > 20 µM | displayed toxicity |
| COc1ccc(C=NNC(=O)c2ccccc2O)cc1O [Compound 892, 2-hydroxy-N′-(3-hydroxy-4-methoxybenzylidene)benzohydrazide] | – | displayed toxicity |
